Data as given in US7674772B2, “Compositions and methods for treating atherosclerosis” (Queen's University at Kingston, priority 2006, dated 2010).
Square brackets hold non-standard residues; d marks the D form. Ends that are not written are not given here.

How the values were obtained:
mouse cell culture = conditions: U.S. Ser. No. 11/268,690; cited from earlier work
human cell culture = conditions: U.S. Ser. No. 11/268,690; cited from earlier work
[1] = intravenous and oral administration of an aqueous solution; U.S. Ser. No. 11/268,690; cited from earlier work
[2] = tested on: [3H]-cholesterol-loaded J774 macrophages; assay: in vivo mouse cholesterol export model; set-up: species or system mice
Procedure: In these experiments, mice (n=4) were first injected intravenously with [^3H]cholesterol-laden macrophages and then injected 24 hours later with the exemplary retro-inversal D amino acid peptide RFHNPDKGSRGWENAAQDA (D-form; SEQ ID NO: 3). This peptide is the reverse sequence of the forward human D amino acid 19-mer peptide ADQAANEWGRSGKDPNHFR (D-form; SEQ ID NO:11) disclosed in U.S. patent application Ser. No. 11/268,690, filed Nov. 7, 2005, teachings of which are herein incorporated by reference in their entirety.
The retro-inversal D amino acid peptide RFHNPDKGSRGWENAAQDA (SEQ ID NO: 3) at a total dose of 300 ug, was injected into the tail vein of each mouse that was previously (24 hours earlier) injected with H^3-radiolabeled cholesterol-loaded macrophages. […] The blood samples were centrifuged to separate the red blood cells from the plasma and the [^3H]-cholesterol in plasma was determined by scintillation counting. […]
Cells were washed four times with PBS/BSA and then detached from the culture dishes. […] Baseline cholesterol efflux was determined by measuring the amount of [^3H]-cholesterol in plasma by scintillation spectrometry. […]
Five hours following intravenous injection of the reverse peptide, approximately 25 μl of blood were collected from the tail vein of each animal into heparinized capillary tubes and cholesterol efflux was determined as described above. […]

ADQAANEWGRSGKDPNHFR ([dA][dD][dQ][dA][dA][dN][dE][dW]G[dR][dS]G[dK][dD][dP][dN][dH][dF][dR]) [SEQ ID NO:11, forward human SAA 1.1 D amino acid 19-mer peptide disclosed in U.S. Ser. No. 11/268,690]
cholesterol efflux in vitro (mouse cell culture): effective at increasing cholesterol efflux | cholesterol efflux in vitro (human cell culture): effective at increasing cholesterol efflux | cholesterol efflux in vivo [1]: effective at increasing cholesterol efflux

RFHNPDKGSRGWENAAQDA ([dR][dF][dH][dN][dP][dD][dK]G[dS][dR]G[dW][dE][dN][dA][dA][dQ][dD][dA]) [SEQ ID NO: 3]
increase in macrophage cholesterol export relative to control animals treated with saline vehicle alone ([2]; 300 μg total dose, tail vein injection, [3H]-cholesterol in plasma 5 hours post injection, n=4, p=0.0004): over 2.5 fold | in vivo macrophage cholesterol export / cholesterol efflux ([2]; intravenous, aqueous vehicle, versus vehicle control group (p=0.0004)): significantly enhanced
